Measured values taken from patent publication US8394825B2, “Compound” (Sterix Limited, priority 2007, dated 2013).

Columns and labels:
DU145 cells = assay: Antiproliferative assay in DU145 cells, WST-1 cell proliferation assay, 96 hours (GI50); assay type: cell-based; conditions: Homo sapiens, DU-145, 96 hours post-treatment, triplicate
How it was run: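 DU145 cells seeded at 5000 cells/well, treated with […] compound or vehicle for 96 h. Viability read by WST-1, expressed as percent of mean control, GI50 derived; triplicate experiments.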

Compound	GI50 (DU145 cells) [µM]	melting point [°C]
CCOc1cccc(CN2CCc3cc(O)c(OC)cc3C2)c1 [compound 63, 2-(3-Ethoxybenzyl)-6-hydroxy-7-methoxy-1,2,3,4-tetrahydroisoquinoline]	> 100	105 to 106
COc1cc2c(cc1O)CCN(Cc1cccc(C#N)c1)C2 [compound 64, 2-(3-Cyanobenzyl)-6-hydroxy-7-methoxy-1,2,3,4-tetrahydroisoquinoline]	> 100	113 to 155
COc1cc2c(cc1O)CCN(Cc1ccc(C#N)cc1)C2 [compound 65, 2-(4-Cyanobenzyl)-6-hydroxy-7-methoxy-1,2,3,4-tetrahydroisoquinoline]	> 100	165 to 166.5
COc1cc2c(cc1O)CCN(Cc1cccc([N+](=O)[O-])c1)C2 [compound 66, 6-Hydroxy-7-methoxy-2-(3-nitrobenzyl)-1,2,3,4-tetrahydroisoquinoline]	> 100	127 to 128
COc1cc2c(cc1O)CCN(Cc1cccc(Cl)c1)C2 [compound 67, 2-(3-Chlorobenzyl)-6-hydroxy-7-methoxy-1,2,3,4-tetrahydroisoquinoline]	50 to 100	118 to 119.5
COc1cc2c(cc1O)CCN(Cc1cccc(OC(F)(F)F)c1)C2 [compound 68, 6-Hydroxy-7-methoxy-2-(3-trifluoromethoxybenzyl)-1,2,3,4-tetrahydroisoquinoline]	50 to 100	122 to 124
COc1cc2c(cc1O)CCN(Cc1ccccc1O)C2 [compound 69, 2-(2-Hydroxybenzyl)-6-hydroxy-7-methoxy-1,2,3,4-tetrahydroisoquinoline]	> 100	151.9 to 152.6
COc1cc2c(cc1O)CCN(Cc1cccc(O)c1)C2 [compound 70, 2-(3-Hydroxybenzyl)-7-methoxy-1,2,3,4-tetrahydroisoquinolin-6-ol]	> 100	177 to 178
COc1ccc(C(=O)N2CCc3cc(OCc4ccccc4)c(OC)cc3C2)cc1 [compound 108, 7-Methoxy-2-(4-methoxybenzoyl)-6-benzyloxy-1,2,3,4-tetrahydroisoquinoline]	10 to 50	126 to 127
COc1cc(OC)cc(C(=O)N2CCc3cc(OCc4ccccc4)c(OC)cc3C2)c1 [compound 110, 6-Benzyloxy-2-(3,5-dimethoxybenzoyl)-7-methoxy-1,2,3,4-tetrahydroisoquinoline]	10 to 50	130 to 131
COc1cc2c(cc1O)CCN(C(=O)c1ccccc1OC)C2 [compound 115, 6-Hydroxy-7-methoxy-2-(2-methoxybenzoyl)-1,2,3,4-tetrahydroisoquinoline]	50 to 100	176 to 177
COc1cccc(C(=O)N2CCc3cc(O)c(OC)cc3C2)c1 [compound 116, 6-Hydroxy-7-methoxy-2-(3-methoxybenzoyl)-1,2,3,4-tetrahydroisoquinoline]	10 to 50	141 to 142
COc1ccc(C(=O)N2CCc3cc(O)c(OC)cc3C2)cc1 [compound 117, 6-Hydroxy-7-methoxy-2-(4-methoxybenzoyl)-1,2,3,4-tetrahydroisoquinoline]	> 100	173 to 174
COc1cc2c(cc1O)CCN(C(=O)c1ccc(OC)c(OC)c1)C2 [compound 118, 2-(3,4-Dimethoxybenzoyl)-6-hydroxy-7-methoxy-1,2,3,4-tetrahydroisoquinoline]	> 100	132 to 133
COc1cc2c(cc1O)CCN(C(=O)c1cc(OC)c(OC)c(OC)c1)C2 [compound 120, 6-Hydroxy-7-methoxy-2-(3,4,5-trimethoxybenzoyl)-1,2,3,4-tetrahydroisoquinoline]	< 10	172 to 173
COc1ccc(C(=O)N2CCc3cc(OCc4ccccc4)c(OC)cc3C2=O)cc1 [compound 128, 6-Benzyloxy-7-methoxy-2-(4-methoxybenzoyl)-3,4-dihydro-2H-isoquinolin-1-one]	> 100	151 to 152
COc1cc(OC)cc(C(=O)N2CCc3cc(OCc4ccccc4)c(OC)cc3C2=O)c1 [compound 129, 6-(Benzyloxy)-2-(3,5-dimethoxybenzoyl)-7-methoxy-3,4-dihydro-2H-isoquinolin-1-one]	> 100	180 to 181
COc1cc2c(cc1OCc1ccccc1)CCN(C(=O)c1ccccc1OC)C2=O [compound 130, 6-Benzyloxy-7-methoxy-2-(2-methoxybenzoyl)-3,4-dihydro-2H-isoquinoline-1-one]	> 100	163 to 164
COc1ccc(C(=O)N2CCc3cc(OCc4ccccc4)c(OC)cc3C2=O)cc1OC [compound 133, 6-(Benzyloxy)-7-methoxy-2-(3,4-dimethoxybenzoyl)-3,4-dihydro-2H-isoquinoline-1-one]	> 100	200 to 201

Compound	GI50 (DU145 cells) [µM]	melting point [°C]
COc1cc2c(cc1OCc1ccccc1)CCN(C(=O)c1cc(OC)c(OC)c(OC)c1)C2=O [compound 134, 6-Benzyloxy-7-methoxy-2-(3,4,5-trimethoxybenzoyl)-3,4-dihydro-2H-isoquinolin-1-one]	> 100	195 to 196
COc1cc2c(cc1OCc1ccccc1)CCN(C(=O)c1cccc(C#N)c1)C2=O [compound 135, 6-Benzyloxy-2-(3-cyanobenzoyl)-7-methoxy-3,4-dihydro-2H-isoquinoline-1-one]	> 100	195 to 196
COc1cc2c(cc1O)CCN(C(=O)c1ccccc1OC)C2=O [compound 138, 6-Hydroxy-7-methoxy-2-(2-methoxybenzoyl)-3,4-dihydro-2H-isoquinoline-1-one]	< 10	199 to 200
COc1cccc(C(=O)N2CCc3cc(O)c(OC)cc3C2=O)c1 [compound 139, 6-Hydroxy-7-methoxy-2-(3-methoxybenzoyl)-3,4-dihydro-2H-isoquinoline-1-one]	< 10	198 to 199
COc1ccc(C(=O)N2CCc3cc(O)c(OC)cc3C2=O)cc1 [compound 140, 6-Hydroxy-7-methoxy-2-(4-methoxybenzoyl)-3,4-dihydro-2H-isoquinolin-1-one]	> 100	224 to 225
COc1cc(OC)cc(C(=O)N2CCc3cc(O)c(OC)cc3C2=O)c1 [compound 141, 2-(3,5-Dimethoxybenzoyl)-6-hydroxy-7-methoxy-3,4-dihydro-2H-isoquinolin-1-one]	< 10	198 to 199
COc1cc2c(cc1O)CCN(C(=O)c1ccc(OC)c(OC)c1)C2=O [compound 142, 2-(3,4-Dimethoxybenzoyl)-6-hydroxy-7-methoxy-3,4-dihydro-2H-isoquinoline-1-one]	< 10	199 to 200
COc1cc2c(cc1O)CCN(C(=O)c1cc(OC)c(OC)c(OC)c1)C2=O [compound 143, 6-Hydroxy-7-methoxy-2-(3,4,5-trimethoxybenzoyl)-3,4-dihydro-2H-isoquinolin-1-one]	< 10	175 to 176
COc1cc2c(cc1O)CCN(C(=O)c1cccc(C#N)c1)C2=O [compound 144, 2-(3-Cyanobenzoyl)-6-hydroxy-7-methoxy-3,4-dihydro-2H-isoquinoline-1-one]	50 to 100	197 to 198
COc1cc2c(cc1O)CCN(C(=O)c1ccc(C#N)cc1)C2=O [compound 145, 2-(4-Cyanobenzoyl)-6-hydroxy-7-methoxy-3,4-dihydro-2H-isoquinoline-1-one]	> 100	198 to 199
COc1cccc(COc2cc3c(cc2OC)C(=O)N(Cc2cccc(OC)c2)CC3)c1 [compound 155, 7-Methoxy-2-(3-methoxybenzyl)-6-(3-methoxybenzyloxy)-3,4-dihydro-2H-isoquinolin-1-one]	> 100	85 to 86
COc1ccccc1COc1cc2c(cc1OC)C(=O)N(Cc1ccccc1OC)CC2 [compound 156, 7-Methoxy-2-(2-methoxybenzyl)-6-(2-methoxybenzyloxy)-3,4-dihydro-2H-isoquinolin-1-one]	> 100	133 to 134
COc1cc(CN2CCc3cc(OCc4ccccc4)c(OC)cc3C2=O)cc(OC)c1 [compound 157, 6-(Benzyloxy)-2-(3,5-dimethoxybenzyl)-7-methoxy-3,4-dihydro-2H-isoquinolin-1-one]	> 100	82 to 83
COc1cc2c(cc1OCc1ccccc1)CCN(Cc1cc(OC)c(OC)c(OC)c1)C2=O [compound 158, 6-(benzyloxy)-7-methoxy-2-(3,4,5-trimethoxybenzyl)-3,4-dihydro-2H-isoquinolin-1-one]	> 100	136 to 137
COc1ccc(CN2CCc3cc(O)c(OC)cc3C2=O)cc1 [compound 159, 6-Hydroxy-7-methoxy-2-(4-methoxybenzyl)-3,4-dihydroisoquinolin-1(2H)-one]	> 100	171 to 172
COc1cccc(CN2CCc3cc(O)c(OC)cc3C2=O)c1 [compound 160, 6-Hydroxy-7-methoxy-2-(3-methoxy-benzyl)-3,4-dihydro-2H-isoquinolin-1-one]	> 100	181 to 182
COc1cc2c(cc1O)CCN(Cc1ccccc1OC)C2=O [compound 161, 6-Hydroxy-7-methoxy-2-(2-methoxybenzyl)-3,4-dihydro-2H-isoquinolin-1-one]	> 100	164 to 165
COc1cc(CN2CCc3cc(O)c(OC)cc3C2=O)cc(OC)c1 [compound 162, 2-(3,5-dimethoxybenzyl)-6-hydroxy-7-methoxy-3,4-dihydro-2H-isoquinolin-1-one]	> 100	166 to 167
COc1cc2c(cc1O)CCN(Cc1cc(OC)c(OC)c(OC)c1)C2=O [compound 163, 6-hydroxy-7-methoxy-2-(3,4,5-trimethoxybenzyl)-3,4-dihydro-2H-isoquinolin-1-one]	> 100	168 to 169
